“Also recorded” adds a separate entry of the source.
Assays:
proNGF/p75^NTR axis [1] = assay: Voiding spot assay (VSA) in diabetic mice; type: in vivo, C57BL/6 female mice
Experimental: Voiding spot assay: For the voiding spot assay (VSA), mice were placed individually with access to food without water for 2 h. The cage was fitted with a chromatography paper, grade 3 mm CHR (Whatman, GE Healthcare, UK) covered by a fine metallic mesh (2-3 mm pore size). The urine spot pattern was assessed by imaging the chromatography paper with ultraviolet light using SynGene Bioimaging system (USA) connected to GeneSnap software (Version 7.02, USA) and analysed by ImageJ software (Version: 2.0.0-rc-66/1.52n, NIH, USA) using a calibration curve and Void Whizzard free software plugin for FIJI (distribution of ImageJ, Version: 2.0.0-rc-66/1.52n, NIH, USA). Mice were acquainted to the procedure once to get accustomed, then the experiment was done once to obtain the voiding data.
(§1) Animal housing and treatments All experiments received the ethical approval from the Lady Davis Institute Ethics Board (No. 7859), Montreal, Canada. Housing and handling conformed with the Canadian Council for Animal Care (CCAC). One hundred and forty four 9-week-old C57BL/6 female mice were kept on a 12 h light/dark cycle with free access to food (standard Purina chow, Teklad Global, Wl, USA) and water. Diabetes was induced by i.p. injection of streptozotocin (60 mg/kg in citrate buffer, 10 mmol/l, pH 4.5 on 5 consecutive days) after 4-5 h fasting. Fasting serum glucose (FSG) was checked after 5-7 days using a glucometer (Contour next EZ, Bayer, ON, Canada) from the tail. FSG above 14 mmol/l was considered diabetic. Mice were divided into four groups without pre-considering their weight changes or glucose levels (for diabetic groups): control (42 mice); untreated diabetic (hereafter referred to as Dm; 42 mice); anti-proNGF mAb-treated diabetic mice (30 mice); and small molecule p75^NTR antagonist (THX-B)-treated diabetic mice (30 mice). […] This inhibitor antagonises ligand-dependent p75^NTR functions and, different from other anti-NGF mAbs, it is free of the off-target side effects resulting from inhibiting TrkA. We have observed that the molecule is detectable in systemic circulation for 2 weeks. The THX-B small molecule ((1,3-diisopropyl-1-[2-(1,3-dimethyl-2,6-dioxo-1,2,3,6-tetrahydro-purin-7-yl)-acetyl]-urea); molecular mass […]) is a synthetic chemical with an estimated systemic circulation half-life in vivo of 6-8 h.
(§2) Without blinding, i.p. injections of the drug molecules or the vehicle (PBS) were given weekly for four weeks, starting after 2 weeks of diabetes confirmation. A single starting proNGF mAb i.p. injection of 100 µg/mouse in 150 µl PBS was followed by 60 µg/mouse in 100µl PBS for the following three injections. THX-B was injected i.p. at a weekly dose of 50 µg/mouse in 125 µl PBS. Experimental time points (to carry out cystometry, contractility, protein extraction and histology) were baseline (two weeks after diabetes diagnosis included control and Dm groups only), week 2 after treatment (following 2 injection cycles) and week 4 after treatment (following 4 injection cycles). Body weight was measured weekly and FSG fortnightly for all groups. Six mice from each group were kept for another 2 weeks after the end of the study duration to observe the washout/prolonged effect of the molecules.

proNGF/p75^NTR axis [2] = assay: Fasting serum glucose and bladder weight/morphology after drug washout (Figure 7); type: in vivo, C57BL/6 female mice; details: after the 3 week washout period; compared with Dm
Experimental: (§3) • Figure 1. NGFR inhibition by THX-B reduces melanoma spontaneous metastasis. A-B) 200.000 lymph node metastatic mouse melanoma cells were subcutaneously in c57/BL6 mice. Animals were treated intra-peritoneally with THX-B (4 mg/Kg twice a week), starting on day 7 post-injection of tumor cells. Tumor volume (A) was measured twice a week using a caliper. LN and lung metastatic burden (B) were measured using the IVIS image system and represented as fold over vehicle treated mice. Error bars represent s.e.m. of 2 experiments (n = 8 mice, vehicle group and n = 10, THX-B group). C-D) Similarly, tumor growth (C) was measured in mice subcutaneously injected with lung metastatic mouse melanoma cells (200.000) and treated with vehicle or THX-B in the same conditions as A) (n=4-5mice per condition). D) Percentage of lung lobules with melanoma metastasis in animals with flank tumors originated by injecting B16F10 cells. p values were calculated by two-tailed Student's t test. • Figure 2. […] A) Tumor growth was measured with a caliper twice a week. B) Quantification of the percentage of lung lobules with melanoma metastasis was analyzed measuring Luc expression of tumor loci with the IVIS system. p values were calculated by two-tailed Student's t test. • Figure 3. […] A) Tumor volume was measured using a caliper. […] Distal metastases were analyzed measuring luciferase expression in the lungs using IVIS system. […]

mouse melanoma cells = assay: Spontaneous metastasis model, mouse melanoma cells injected subcutaneously (Figure 1); type: in vivo, c57/BL6 mice
Experimental: • Figure 1. NGFR inhibition by THX-B reduces melanoma spontaneous metastasis. A-B) 200.000 lymph node metastatic mouse melanoma cells were subcutaneously in c57/BL6 mice. Animals were treated intra-peritoneally with THX-B (4 mg/Kg twice a week), starting on day 7 post-injection of tumor cells. Tumor volume (A) was measured twice a week using a caliper. LN and lung metastatic burden (B) were measured using the IVIS image system and represented as fold over vehicle treated mice. Error bars represent s.e.m. of 2 experiments (n = 8 mice, vehicle group and n = 10, THX-B group). C-D) Similarly, tumor growth (C) was measured in mice subcutaneously injected with lung metastatic mouse melanoma cells (200.000) and treated with vehicle or THX-B in the same conditions as A) (n=4-5mice per condition). D) Percentage of lung lobules with melanoma metastasis in animals with flank tumors originated by injecting B16F10 cells. p values were calculated by two-tailed Student's t test. • Figure 2. NGFR inhibition by THX-B reduces melanoma spontaneous metastasis in immunodeficient models. Lung metastatic human melanoma cells (500.000) were injected subcutaneously into the flank of nude mice. […] A) Tumor growth was measured with a caliper twice a week. B) Quantification of the percentage of lung lobules with melanoma metastasis was analyzed measuring Luc expression of tumor loci with the IVIS system. p values were calculated by two-tailed Student's t test. • Figure 3. […] A) Tumor volume was measured using a caliper. […] Distal metastases were analyzed measuring luciferase expression in the lungs using IVIS system. Error bars represent s.e.m of 3 experiment (n = 12 mice, vehicle group, n = 12, antiPD-L1 group; n=8 antiPDL1 and THX-B group). p values were calculated by two-tailed Student's t test. • Figure 4. […] Quantification of LYVE+ area was performed with ImageJ software and was normalized to total LN area in each section. Error bars represent s.e.m of 1 experiment (n = 6 LNs, 3 whole sections analyzed per nodule). p values were calculated by two-tailed Student's t test. • Figure 6. […]

TNF-a = assay: Molecular changes in diabetic voiding dysfunction model: TNF-a; type: in vivo, C57BL/6 female mice; details: compared with Dm
Experimental: (§4) Animal housing and treatments All experiments received the ethical approval from the Lady Davis Institute Ethics Board (No. 7859), Montreal, Canada. Housing and handling conformed with the Canadian Council for Animal Care (CCAC). One hundred and forty four 9-week-old C57BL/6 female mice were kept on a 12 h light/dark cycle with free access to food (standard Purina chow, Teklad Global, Wl, USA) and water. Diabetes was induced by i.p. injection of streptozotocin (60 mg/kg in citrate buffer, 10 mmol/l, pH 4.5 on 5 consecutive days) after 4-5 h fasting. Fasting serum glucose (FSG) was checked after 5-7 days using a glucometer (Contour next EZ, Bayer, ON, Canada) from the tail. FSG above 14 mmol/l was considered diabetic. Mice were divided into four groups without pre-considering their weight changes or glucose levels (for diabetic groups): control (42 mice); untreated diabetic (hereafter referred to as Dm; 42 mice); anti-proNGF mAb-treated diabetic mice (30 mice); and small molecule p75^NTR antagonist (THX-B)-treated diabetic mice (30 mice). […]
(§5) Without blinding, i.p. injections of the drug molecules or the vehicle (PBS) were given weekly for four weeks, starting after 2 weeks of diabetes confirmation. […] Body weight was measured weekly and FSG fortnightly for all groups. […]

proNGF/p75^NTR axis [3] = assay: Bladder contractility in diabetic voiding dysfunction model; type: in vivo, C57BL/6 female mice; details: compared with Dm, week as printed in the cell
Experimental: as §1
Without blinding, i.p. injections of the drug molecules or the vehicle (PBS) were given weekly for four weeks, starting after 2 weeks of diabetes confirmation. A single starting proNGF mAb i.p. injection of 100 µg/mouse in 150 µl PBS was followed by 60 µg/mouse in 100µl PBS for the following three injections. THX-B was injected i.p. at a weekly dose of 50 µg/mouse in 125 µl PBS. […] Body weight was measured weekly and FSG fortnightly for all groups. […]

[4] = tested on: Lung metastatic human melanoma cells; assay: Spontaneous metastasis model in immunodeficient mice, human melanoma cells injected subcutaneously (Figure 2); type: in vivo, nude mice; details: immunodeficient models; THX-B 4 mg/Kg intraperitoneal twice a week from day 7; vs vehicle
Experimental: as §3

[5] = Persistence in systemic circulation in vivo; details: read-out: estimated systemic circulation half-life in vivo
Text: In both the proNGF mAb and the THX-B treatments, the prolonged anatomical physiological effects on the bladder are likely to be due to a prolonged therapeutic effect rather than to the drugs remaining in circulation at therapeutic levels after a 3 week period, given that we have observed that anti-proNGF mAb is detectable in systemic circulation only for 2 weeks in previous studies.
as §4, with “diabetic.” for “diabetic. Mice were divided into four groups without pre-considering their weight changes or glucose levels (for diabetic groups): control (42 mice); untreated diabetic (hereafter referred to as Dm; 42 mice); anti-proNGF mAb-treated diabetic mice (30 mice); and small molecule p75^NTR antagonist (THX-B)-treated diabetic mice (30 mice).”

proNGF/NGF = assay: Molecular changes in diabetic voiding dysfunction model: proNGF/NGF; type: in vivo, C57BL/6 female mice; details: compared with Dm
Experimental: as §4, §5

B16F1-R2 cells = assay: Lymph node lymphangiogenesis, LYVE-1 staining of inguinal LNs of animals with flank tumors (Figure 5); type: in vivo; details: 2.5 mg/Kg THX-B intra-peritoneally twice a week from day 7; sacrificed at 21 days
Experimental: as §3

proNGF/p75^NTR axis [6] = assay: Bladder weight and morphology in diabetic voiding dysfunction model; type: in vivo, C57BL/6 female mice
Experimental: as §1, §2

[7] = Drug levels and tissue distribution after intraperitoneal and oral administration; type: in vivo, mice
Experimental: In lymph nodes compound was detected at 8 hours with a concentration of 9 ng/ml.

proNGF/p75^NTR axis [8] = assay: Cystometry in diabetic voiding dysfunction model; type: in vivo, C57BL/6 female mice; details: compared with Dm
Experimental: as §1, §2

[9] = compared with Dm, week as printed in the cell
[10] = THX-B 4 mg/Kg intra-peritoneally twice a week from day 7, vs vehicle

half-life [5]: 6 to 8 h | organ distribution: lymph nodes ([7]; females, 20 hours after injection 4mg/Kg): can be detected | detection levels ([7]; intraperitoneal injection 4mg/Kg, males and female mice, said to suggest a short half-life): dropped 1 hour after injection | concentration at 8 h ([7]; mouse, lymph nodes, oral dose 50mg/Kg, 8 hours): 9 ng/mL | concentration at 24 h ([7]; mouse, tissues except lymph nodes, oral dose 50mg/Kg, 24h, read-out: tissue distribution: concentration in all the tissues except the lymph nodes): 12 to 20 ng/mL | half-life ([7]; oral gavage 10mg/Kg, compared with intraperitoneal injection): similar | half-life ([7]; oral gavage 50mg/Kg): sustained over time
SMILES: CC(C)NC(=O)N(C(=O)Cn1cnc2c1c(=O)n(C)c(=O)n2C)C(C)C [THX-B, 1,3-diisopropyl-1-[2-(1,3-dimethyl-2,6-dioxo-1,2,3,6-tetrahydro-purin-7-yl)-acetyl]-urea]
lower total voided volume compared with Dm (proNGF/p75^NTR axis [1]; after 2 weeks of treatment): 50% | total voided volume (proNGF/p75^NTR axis [1]; after 2 weeks of treatment, 2 h VSA, Dm 802.5±123µl): 372 ± 73 µL | VSA: Volume per spot (proNGF/p75^NTR axis [1]; compared with Dm): ⇔ | effects on voiding frequency, total voided volume and mean volume per micturition (proNGF/p75^NTR axis [1]; compared with Dm, except total voided volume for THX-B at 2 weeks): minimal effects | VSA: Number of spots (proNGF/p75^NTR axis [1]; [9]): ↓ (week 2) | VSA: Total volume (proNGF/p75^NTR axis [1]; [9]): ↓ (week 2) | Bladder weight (proNGF/p75^NTR axis [2]): persistent absence of bladder hypertrophy; also recorded: maintained a significant difference | melanoma spontaneous metastasis (mouse melanoma cells; Figure 1 title, THX-B 4 mg/Kg intra-peritoneally twice a week): reduces | distal (lung) spontaneous metastasis (mouse melanoma cells; [10]): impaired | local (lymph node) spontaneous metastasis (mouse melanoma cells; [10]): impaired | Molecular changes: TNF-a (TNF-a): ↓↓ | Contractility: EFS (proNGF/p75^NTR axis [3]; Electric field stimulation): ↑ (week 2,4) | Contractility: Carbachol (proNGF/p75^NTR axis [3]): ↑ (week 2,4) | Contractility: KCI (proNGF/p75^NTR axis [3]): ↑ (week 2,4) | lung spontaneous metastasis [4]: reduce | Molecular changes: proNGF/NGF (proNGF/NGF): ↓ | lymph node lymphangiogenesis (Lyve-1+ staining in inguinal lymph nodes) (B16F1-R2 cells): reduces; also recorded: decreased | Morphology: Collagen content (proNGF/p75^NTR axis [6]; compared with Dm): ↓ | Morphology: Detrusor (proNGF/p75^NTR axis [6]; compared with Dm): ↓ | Morphology: Mucosa (proNGF/p75^NTR axis [6]; compared with Dm): ↓ | Morphology: Overall thickness (proNGF/p75^NTR axis [6]; compared with Dm): ↓ | Bladder weight (proNGF/p75^NTR axis [6]; compared with Dm, week of treatment as printed in the cell): ↓ (week 2,4) | morphology of the bladder (proNGF/p75^NTR axis [6]; following THX-B treatment, in spite of continuous hyperglycemia): improved | Cystometry: Spontaneous activity (proNGF/p75^NTR axis [8]): ⇔ | Cystometry: Bladder capacity (proNGF/p75^NTR axis [8]; week as printed in the cell): ↓ (week 4) | Cystometry: Bladder compliance (proNGF/p75^NTR axis [8]; week as printed in the cell): ⇔ | Cystometry: ICI (proNGF/p75^NTR axis [8]; inter-contraction interval, week as printed in the cell): ↓ (week 4)

— patent EP4122467A1, “THX-B FOR TREATING AND PREVENTING CANCER AND METASTASIS” (Fundación del Sector Público Estatal Centro Nacional de …, priority 2021, dated 2023)
